PubChem BioAssay (NCI)
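All cell lines were grown in 96-well plates and treated with compound for 48 hours. GI50: concentration for 50% inhibition of growth. The concentration for full growth arrest is given as TGI.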

Legend:
Assay in all cases: growth of human tumour cells (NCI), 48 h
OVCAR-4 ovarian = system: OVCAR-4 ovarian
CCRF-CEM leukemia = system: CCRF-CEM leukemia
HCT-116 colon = system: HCT-116 colon
NCI-H226 lung = system: NCI-H226 lung
MALME-3M melanoma = system: MALME-3M melanoma
NCI-H522 lung = system: NCI-H522 lung
SF-268 CNS = system: SF-268 CNS
SR leukemia = system: SR leukemia
MDA-MB-468 breast = system: MDA-MB-468 breast
SK-MEL-5 melanoma = system: SK-MEL-5 melanoma
OVCAR-3 ovarian = system: OVCAR-3 ovarian
786-0 renal = system: 786-0 renal
HT29 colon = system: HT29 colon
NCI-H460 lung = system: NCI-H460 lung
HCC-2998 colon = system: HCC-2998 colon
COLO 205 colon = system: COLO 205 colon
UACC-62 melanoma = system: UACC-62 melanoma
MCF7 breast = system: MCF7 breast
HCT-15 colon = system: HCT-15 colon
MDA-MB-435 = system: MDA-MB-435
NCI/ADR-RES ovarian = system: NCI/ADR-RES ovarian
KM12 colon = system: KM12 colon
K-562 leukemia = system: K-562 leukemia
RXF 393 renal = system: RXF 393 renal
HOP-92 NSCLC = system: HOP-92 NSCLC
UACC-257 melanoma = system: UACC-257 melanoma
SNB-19 CNS = system: SNB-19 CNS
BT-549 breast = system: BT-549 breast
U251 CNS = system: U251 CNS
M14 melanoma = system: M14 melanoma
SK-MEL-28 melanoma = system: SK-MEL-28 melanoma
OVCAR-5 ovarian = system: OVCAR-5 ovarian
EKVX NSCLC = system: EKVX NSCLC
LOX IMVI melanoma = system: LOX IMVI melanoma
MOLT-4 leukemia = system: MOLT-4 leukemia
TK-10 renal = system: TK-10 renal
CAKI-1 renal = system: CAKI-1 renal
T-47D breast = system: T-47D breast
HOP-62 NSCLC = system: HOP-62 NSCLC
ACHN renal = system: ACHN renal
DU-145 prostate = system: DU-145 prostate
NCI-H23 lung = system: NCI-H23 lung
PC-3 prostate = system: PC-3 prostate
OVCAR-8 ovarian = system: OVCAR-8 ovarian
A549 NSCLC = system: A549 NSCLC
IGROV1 ovarian = system: IGROV1 ovarian
SF-295 CNS = system: SF-295 CNS
A498 renal = system: A498 renal
HS 578T breast = system: HS 578T breast
SN12C renal = system: SN12C renal
HL-60(TB) leukemia = system: HL-60(TB) leukemia
SK-OV-3 ovarian = system: SK-OV-3 ovarian
SW-620 colon = system: SW-620 colon
RPMI-8226 leukemia = system: RPMI-8226 leukemia
SF-539 CNS = system: SF-539 CNS

Compound: CC[C@]12C=CCN3CC[C@@]4(c5ccc(OC)cc5N(C)[C@H]4[C@@](O)(C(=O)OC)[C@@H]1OC(=O)CCCC[P+](c1ccc(F)cc1)(c1ccc(F)cc1)c1ccc(F)cc1)[C@@H]32
- GI50 (OVCAR-4 ovarian): 25.1 µM
- TGI (OVCAR-4 ovarian): > 100 µM
- GI50 (CCRF-CEM leukemia): 13.6 µM
- TGI (CCRF-CEM leukemia): 30.3 µM
- GI50 (HCT-116 colon): 25.9 µM
- TGI (HCT-116 colon): > 100 µM
- GI50 (NCI-H226 lung): 27.3 µM
- TGI (NCI-H226 lung): > 100 µM
- GI50 (MALME-3M melanoma): 13.5 µM
- TGI (MALME-3M melanoma): 27.3 µM
- GI50 (NCI-H522 lung): 5.44 µM
- TGI (NCI-H522 lung): 20.2 µM
- GI50 (SF-268 CNS): 17.6 µM
- TGI (SF-268 CNS): 38.3 µM
- GI50 (SR leukemia): 14.5 µM
- TGI (SR leukemia): 31.9 µM
- GI50 (MDA-MB-468 breast): 2.61 µM
- TGI (MDA-MB-468 breast): 11.1 µM
- GI50 (SK-MEL-5 melanoma): 17.1 µM
- TGI (SK-MEL-5 melanoma): 30.8 µM
- GI50 (OVCAR-3 ovarian): 9.3 µM
- TGI (OVCAR-3 ovarian): 23.3 µM
- GI50 (786-0 renal): 34.1 µM
- TGI (786-0 renal): > 100 µM
- GI50 (HT29 colon): 15.4 µM
- TGI (HT29 colon): 38.8 µM
- GI50 (NCI-H460 lung): 29.4 µM
- TGI (NCI-H460 lung): > 100 µM
- GI50 (HCC-2998 colon): 12.5 µM
- TGI (HCC-2998 colon): 25.5 µM
- GI50 (COLO 205 colon): 4.63 µM
- TGI (COLO 205 colon): 16.4 µM
- GI50 (UACC-62 melanoma): 11.3 µM
- TGI (UACC-62 melanoma): 23.5 µM
- GI50 (MCF7 breast): 11.5 µM
- TGI (MCF7 breast): 24.5 µM
- GI50 (HCT-15 colon): > 100 µM
- TGI (HCT-15 colon): > 100 µM
- GI50 (MDA-MB-435): 12.9 µM
- TGI (MDA-MB-435): 28.4 µM
- GI50 (NCI/ADR-RES ovarian): > 100 µM
- TGI (NCI/ADR-RES ovarian): > 100 µM
- GI50 (KM12 colon): 13.4 µM
- TGI (KM12 colon): 27.7 µM
- GI50 (K-562 leukemia): 11.3 µM
- TGI (K-562 leukemia): 38.7 µM
- GI50 (RXF 393 renal): 13.3 µM
- TGI (RXF 393 renal): 31.6 µM
- GI50 (HOP-92 NSCLC): 6.32 µM
- TGI (HOP-92 NSCLC): 23.5 µM
- GI50 (UACC-257 melanoma): 5.58 µM
- TGI (UACC-257 melanoma): 19.2 µM
- GI50 (SNB-19 CNS): 13 µM
- TGI (SNB-19 CNS): 26.7 µM
- GI50 (BT-549 breast): 12.9 µM
- TGI (BT-549 breast): 27.1 µM
- GI50 (U251 CNS): 10.7 µM
- TGI (U251 CNS): 23.3 µM
- GI50 (M14 melanoma): 14.7 µM
- TGI (M14 melanoma): 30 µM
- GI50 (SK-MEL-28 melanoma): 8.28 µM
- TGI (SK-MEL-28 melanoma): 20.7 µM
- GI50 (OVCAR-5 ovarian): 29.1 µM
- TGI (OVCAR-5 ovarian): > 100 µM
- GI50 (EKVX NSCLC): 21 µM
- TGI (EKVX NSCLC): > 100 µM
- GI50 (LOX IMVI melanoma): 16.8 µM
- TGI (LOX IMVI melanoma): 30.8 µM
- GI50 (MOLT-4 leukemia): 14.7 µM
- TGI (MOLT-4 leukemia): 32.6 µM
- GI50 (TK-10 renal): 21.2 µM
- TGI (TK-10 renal): 52.6 µM
- GI50 (CAKI-1 renal): > 100 µM
- TGI (CAKI-1 renal): > 100 µM
- GI50 (T-47D breast): 11.5 µM
- TGI (T-47D breast): 43.2 µM
- GI50 (HOP-62 NSCLC): 25.5 µM
- TGI (HOP-62 NSCLC): 73.4 µM
- GI50 (ACHN renal): > 100 µM
- TGI (ACHN renal): > 100 µM
- GI50 (DU-145 prostate): 35.4 µM
- TGI (DU-145 prostate): > 100 µM
- GI50 (NCI-H23 lung): 20.1 µM
- TGI (NCI-H23 lung): 53.5 µM
- GI50 (PC-3 prostate): 16.4 µM
- TGI (PC-3 prostate): 56.7 µM
- GI50 (OVCAR-8 ovarian): 29.4 µM
- TGI (OVCAR-8 ovarian): > 100 µM
- GI50 (A549 NSCLC): 33.8 µM
- TGI (A549 NSCLC): > 100 µM
- GI50 (IGROV1 ovarian): 10.8 µM
- TGI (IGROV1 ovarian): 24.3 µM
- GI50 (SF-295 CNS): 30.6 µM
- TGI (SF-295 CNS): > 100 µM
- GI50 (A498 renal): > 100 µM
- TGI (A498 renal): > 100 µM
- GI50 (HS 578T breast): 16.9 µM
- TGI (HS 578T breast): 37.5 µM
- GI50 (SN12C renal): 28.6 µM
- TGI (SN12C renal): > 100 µM
- GI50 (HL-60(TB) leukemia): 2.11 µM
- TGI (HL-60(TB) leukemia): 13.2 µM
- GI50 (SK-OV-3 ovarian): 23.5 µM
- TGI (SK-OV-3 ovarian): 66.5 µM
- GI50 (SW-620 colon): 16.5 µM
- TGI (SW-620 colon): 37.8 µM
- GI50 (RPMI-8226 leukemia): 2.97 µM
- TGI (RPMI-8226 leukemia): 14.9 µM
- GI50 (SF-539 CNS): 21.9 µM
- TGI (SF-539 CNS): 62.4 µM
